From US10493169B2, “Use of charge-balanced imaging agents for determining renal function” (Beth Israel Deaconess Medical Center, priority 2009, dated 2019)
Read-outs that look alike come from different tables or passages of the source.

What was measured:
[1] = Optical properties of NIR fluorophores in 100% calf serum; type: physicochemical; settings: 100% calf serum supplemented with 50 mM HEPES, pH 7.4
From the text: After purification to homogeneity, optical properties of the dyes can be measured in 100% calf serum. Absorbance spectrometry (200 to 870 nm) can be performed using a USB2000 fiber optic spectrometer and CHEM2000-UV-VIS light source with cuvette holder (Ocean Optics, Dunedin, Fla.). Fluorescence spectrometry (200 to 1100 nm) can be performed using a HR2000 fiber optic spectrometer, CUV-ALL-UV 4-way cuvette holder (Ocean Optics), and a 250 mW 770 nm laser diode (Electro Optical Components, Santa Rosa, Calif.). Quantum yield can be measured under conditions of matched absorbance and 770 nm laser excitation, using ICG in DMSO (QY=13%) as the calibration standard.
(§1) Table 2 below summarizes the optical and stability properties of each of these dyes in 100% calf serum (supplemented with 50 mM HEPES, pH 7.4).

[2] = Stability of dyes in 100% calf serum at 37° C.; type: in vitro ADME; settings: 100% calf serum supplemented with 50 mM HEPES, pH 7.4
Protocol: as §1

[3] = In vivo biodistribution and clearance of dyes in rats (FLARE NIR fluorescence imaging); settings: IV 40 pmol/g (10 nmol)
Protocol: The dyes were injected IV into rats at a dose of 40 pmol/g (10 nmol). […] Excitation fluence rate was 5 mW/cm2. Camera integration time was 200 msec. All NIR fluorescence images have identical normalizations. B 1=bladder. Li=Liver. In=Intestines.

[4] = in DMSO; cited from earlier work
[5] = In vivo biodistribution and clearance of dyes in pigs (FLARE NIR fluorescence imaging); settings: for Blood half-lives: IV 40 pmol/g, given in the pig paragraph, species not restated; for uptake in liver and intestines: pigs, IV 40 pmol/g (1.6 μmol)
Protocol: (§2) For in vivo characterization, 40 pmol/g (average 10 nmol) of each dye or conjugate can be injected IV into 250 g Sprague-Dawley rats whose major viscera are surgically exposed. The FLARE™ imaging system can be set to a 760 nm excitation fluence rate of 5 mW/cm2. Simultaneous color video and NIR fluorescence (800 nm) images can be acquired pre-injection, every 1 sec for the first 20 sec then every 1 min for 2 h. Camera acquisition can be held constant (typically 100 msec) and chosen to ensure that all intensity measurements are within the linear range of the 12-bit Orca-AG (Hamamatsu) NIR camera. Blood can be sampled at 0, 1, 2, 5, 10, 15, 30, 60, and 120 min via tail vein. Intensity-time curves for all major organs and tissues can be quantified. The peak fluorescence intensity and time can be determined for each tissue/organ, along with the intensity in each at 1 h post-injection. The experiment can then be repeated in pigs, with measurement of NIR fluorescent intensity of skin and all internal tissues and organs.
(§3) All dyes were injected IV into pigs at a dose of 40 pmol/g (1.6 μmol). […] Excitation fluence rate was 5 mW/cm2. Camera integration time was 200 msec. All NIR fluorescence images had identical normalizations.

[6] = Renal clearance: recovery of dye in urine samples; type: in vivo; settings: human, healthy individuals, urine over 12 h, read-out: recovery of the pre-determined dose in urine
Protocol: Dye MM-19 with net charge of 0 was administered to three groups of subjects of healthy individuals. One group was administered a pre-determined dose of 0.5 mg; one group was administered a pre-determined dose of 2.5 mg; and one group was administered a pre-determined dose of 5.0 mg. Clearance of the dye was measured by quantitative analysis of urine samples obtained by catheterization every hour for the first four hours followed by samples obtained every two hours for the next 8 hours.

in vivo = settings: pig, iv
Protocol: as §2, §3

Extinction Coefficient [1] | Peak Absorbance [1] [nm] | Peak Emission [1] [nm] | QY [1] [%] | Stability at 4 h, 37° C. [2] [%] | clearance / excretion route [3] | liver uptake [3] | Blood half-lives [5] [min] | dose excreted ([6]; dose not named in the sentence (groups 0.5, 2.5, 5.0 mg)) [%] | dose excreted ([6]; predetermined dose of 0.5 mg) [%] | dose excreted ([6]; predetermined dose of 2.5 mg) [%] | half-life (in vivo) [min] | intestinal signal [3] | SMILES | QY (calibration standard) [4] [%] | uptake in liver and intestines [5] | equilibration between intravascular and extravascular spaces [3] | non-specific uptake / background retention in tissues and organs [3]
121,000 M^−1cm^−1 | 807 | 822 | 9.3 | 96 | eventual excretion into bile | rapid uptake by the liver | 4.6 | – | – | – | – | – | CC1(C)C(/C=C/C=C/C=C/C=C2\N(CCCCS(=O)(=O)[O-])c3ccc4ccccc4c3C2(C)C)=[N+](CCCCS(=O)(=O)[O-])c2ccc3ccccc3c21.[Na+] [ICG] | 13 | very high uptake in pig liver and intestines | – | –
249,000 M^−1cm^−1 | 773 | 790 | 13.7 | 95 | rapid renal excretion into urine | no measurable liver uptake | – | > 50 | > 80 | > 60 | 13.4 | – | CC1(C)C(/C=C/C2=C(Oc3ccc(CCC(=O)[O-])cc3)C(=C/C=C3/N(CCC[N+](C)(C)C)c4ccc(S(=O)(=O)[O-])cc4C3(C)C)/CCC2)=[N+](CCC[N+](C)(C)C)c2ccc(S(=O)(=O)[O-])cc21 [MM-19] | – | – | rapid equilibration between intravascular and extravascular spaces | extremely low background retention in normal tissues and organs
237,000 M^−1cm^−1 | 786 | 801 | 14.2 | 95 | cleared equally by liver and kidneys | – | 30.6 | – | – | – | – | high intestinal signal | CC1(C)C(/C=C/C2=C(Oc3ccc(S(=O)(=O)O)cc3)C(=C/C=C3/N(CCCCS(=O)(=O)O)c4ccc(S(=O)(=O)[O-])cc4C3(C)C)/CCC2)=[N+](CCCCCC(=O)O)c2ccc(S(=O)(=O)O)cc21 [CW-800] | – | very high uptake in pig liver and intestines | – | relatively high retention in skin and other major tissues and organs
